Holding throughout (assay): biochemical
What all share (parameters): KINOMEscan active-site competition binding, percent of control (100 = no competition)
What all share (details): competition binding, percent control

The target of test [1] is MAP4K3 (Homo sapiens, UniProt Q8IVH8).
Test [2] concerns the target TXK (Homo sapiens, UniProt P42681).
Test [3] has as its target MAP3K3 (Homo sapiens, UniProt Q99759).
Test [4] concerns the target T1, ERK3 (Homo sapiens, UniProt Q16659).
T1 construct: gene MAPK6

Test [5] addresses MAPKAPK5 (Homo sapiens, UniProt Q8IW41).
The target of test [6] is CSNK1G3 (Homo sapiens, UniProt Q9Y6M4).
Test [7] concerns the target T2, ABL1(H396P)-phosphorylated (Homo sapiens, UniProt P00519, H396P).
T2 construct: phosphorylated

For test [8], the target named is T3, RSK3(Kin.Dom.2-C-terminal) (Homo sapiens, UniProt Q15349).
T3 construct: gene RPS6KA2; Kin.Dom.2-C-terminal

Test [9] concerns the target MYO3A (Homo sapiens, UniProt Q8NEV4).
Test [10] has as its target T4, ERK5 (Homo sapiens, UniProt Q13164).
T4 construct: gene MAPK7

For test [11], the target named is CHEK2 (Homo sapiens, UniProt O96017).
In test [12] the target is FLT1 (Homo sapiens, UniProt P17948).
Test [13] deals with ERBB2 (Homo sapiens, UniProt P04626).
Test [14] concerns the target ERBB4 (Homo sapiens, UniProt Q15303).
Test [15] has as its target TAOK1 (Homo sapiens, UniProt Q7L7X3).
The target of test [16] is PDPK1 (Homo sapiens, UniProt O15530).
Sequence of PDPK1 (O15530 whole entry): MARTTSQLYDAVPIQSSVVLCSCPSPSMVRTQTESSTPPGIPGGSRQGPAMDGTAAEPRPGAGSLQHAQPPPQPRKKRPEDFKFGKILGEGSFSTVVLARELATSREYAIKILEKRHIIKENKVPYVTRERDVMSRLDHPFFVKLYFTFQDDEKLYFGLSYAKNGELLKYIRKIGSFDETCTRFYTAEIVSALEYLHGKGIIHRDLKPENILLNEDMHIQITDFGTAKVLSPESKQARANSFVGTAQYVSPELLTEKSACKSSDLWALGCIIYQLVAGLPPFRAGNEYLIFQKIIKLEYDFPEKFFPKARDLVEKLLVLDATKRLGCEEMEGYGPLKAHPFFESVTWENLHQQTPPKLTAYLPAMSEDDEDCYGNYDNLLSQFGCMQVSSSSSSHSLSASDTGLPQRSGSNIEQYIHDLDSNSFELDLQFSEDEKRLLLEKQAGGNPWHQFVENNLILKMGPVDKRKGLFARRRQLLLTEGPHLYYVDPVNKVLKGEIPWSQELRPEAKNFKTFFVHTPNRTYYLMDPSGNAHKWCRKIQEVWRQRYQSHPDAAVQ
Test [17] deals with SRPK1 (Homo sapiens, UniProt Q96SB4).
For test [18], the target named is T5, LZK (Homo sapiens, UniProt O43283).
T5 construct: gene MAP3K13

The target of test [19] is KIT (Homo sapiens, UniProt P10721).
Test [20] has as its target AXL (Homo sapiens, UniProt P30530).
For test [21], the target named is CAMK1D (Homo sapiens, UniProt Q8IU85).
The target of test [22] is PRKD2 (Homo sapiens, UniProt Q9BZL6).
Sequence of PRKD2 (Q9BZL6 whole entry): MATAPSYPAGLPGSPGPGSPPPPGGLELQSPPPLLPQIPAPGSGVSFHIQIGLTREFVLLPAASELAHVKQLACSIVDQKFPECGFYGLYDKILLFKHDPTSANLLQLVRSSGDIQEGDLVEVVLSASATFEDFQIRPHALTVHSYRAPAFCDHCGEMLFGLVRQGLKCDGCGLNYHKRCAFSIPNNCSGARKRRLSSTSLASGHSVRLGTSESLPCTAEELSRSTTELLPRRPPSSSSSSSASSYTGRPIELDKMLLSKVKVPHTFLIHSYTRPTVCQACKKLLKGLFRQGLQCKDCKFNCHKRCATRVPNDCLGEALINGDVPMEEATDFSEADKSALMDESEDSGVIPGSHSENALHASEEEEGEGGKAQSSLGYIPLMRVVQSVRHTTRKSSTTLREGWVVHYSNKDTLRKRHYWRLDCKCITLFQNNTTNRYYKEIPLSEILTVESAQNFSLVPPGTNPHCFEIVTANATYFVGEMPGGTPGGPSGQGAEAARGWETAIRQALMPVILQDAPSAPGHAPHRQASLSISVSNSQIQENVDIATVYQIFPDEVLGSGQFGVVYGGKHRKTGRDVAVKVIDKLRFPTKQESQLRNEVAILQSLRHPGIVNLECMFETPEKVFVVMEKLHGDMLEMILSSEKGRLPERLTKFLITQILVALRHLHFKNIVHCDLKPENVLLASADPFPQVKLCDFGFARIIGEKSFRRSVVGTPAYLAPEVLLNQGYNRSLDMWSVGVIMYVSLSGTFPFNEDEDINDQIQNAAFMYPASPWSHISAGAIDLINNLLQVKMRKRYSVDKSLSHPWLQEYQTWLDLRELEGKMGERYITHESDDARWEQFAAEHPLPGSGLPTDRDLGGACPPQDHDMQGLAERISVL
Test [23] has as its target T6, TRKB (Homo sapiens, UniProt Q16620).
T6 construct: gene NTRK2

T1 sequence (Q16659 whole entry): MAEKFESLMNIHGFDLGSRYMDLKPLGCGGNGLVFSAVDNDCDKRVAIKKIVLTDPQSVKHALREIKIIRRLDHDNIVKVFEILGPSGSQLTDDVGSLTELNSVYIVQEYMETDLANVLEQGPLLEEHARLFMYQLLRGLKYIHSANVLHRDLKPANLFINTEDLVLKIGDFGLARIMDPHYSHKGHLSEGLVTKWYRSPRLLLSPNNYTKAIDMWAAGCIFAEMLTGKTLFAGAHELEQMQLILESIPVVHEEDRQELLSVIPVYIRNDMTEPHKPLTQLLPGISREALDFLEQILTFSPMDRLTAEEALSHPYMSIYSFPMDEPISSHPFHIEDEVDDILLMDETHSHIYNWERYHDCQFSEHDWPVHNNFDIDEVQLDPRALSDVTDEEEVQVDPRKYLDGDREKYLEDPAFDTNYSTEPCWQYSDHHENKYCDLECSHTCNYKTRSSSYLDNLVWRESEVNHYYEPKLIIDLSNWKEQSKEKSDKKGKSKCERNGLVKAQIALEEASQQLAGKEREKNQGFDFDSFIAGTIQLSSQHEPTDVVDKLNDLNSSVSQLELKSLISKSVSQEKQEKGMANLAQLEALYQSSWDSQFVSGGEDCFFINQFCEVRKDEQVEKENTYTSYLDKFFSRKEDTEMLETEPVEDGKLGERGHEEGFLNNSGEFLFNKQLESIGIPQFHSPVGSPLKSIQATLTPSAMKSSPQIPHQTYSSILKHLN
Sequence of MAPKAPK5 (Q8IW41 whole entry): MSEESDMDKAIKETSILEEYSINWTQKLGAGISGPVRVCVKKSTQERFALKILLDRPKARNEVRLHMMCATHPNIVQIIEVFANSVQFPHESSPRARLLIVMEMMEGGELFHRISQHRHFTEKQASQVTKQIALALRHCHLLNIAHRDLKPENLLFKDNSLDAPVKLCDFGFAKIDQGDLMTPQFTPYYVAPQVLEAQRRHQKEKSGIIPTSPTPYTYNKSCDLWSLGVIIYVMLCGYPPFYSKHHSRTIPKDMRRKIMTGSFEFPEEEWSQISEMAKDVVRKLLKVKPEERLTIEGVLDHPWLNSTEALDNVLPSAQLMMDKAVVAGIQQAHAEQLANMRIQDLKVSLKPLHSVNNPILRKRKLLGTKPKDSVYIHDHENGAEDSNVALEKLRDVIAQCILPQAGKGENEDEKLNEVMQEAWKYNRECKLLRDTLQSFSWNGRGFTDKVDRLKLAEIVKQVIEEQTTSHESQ
Sequence of MYO3A (Q8NEV4 whole entry): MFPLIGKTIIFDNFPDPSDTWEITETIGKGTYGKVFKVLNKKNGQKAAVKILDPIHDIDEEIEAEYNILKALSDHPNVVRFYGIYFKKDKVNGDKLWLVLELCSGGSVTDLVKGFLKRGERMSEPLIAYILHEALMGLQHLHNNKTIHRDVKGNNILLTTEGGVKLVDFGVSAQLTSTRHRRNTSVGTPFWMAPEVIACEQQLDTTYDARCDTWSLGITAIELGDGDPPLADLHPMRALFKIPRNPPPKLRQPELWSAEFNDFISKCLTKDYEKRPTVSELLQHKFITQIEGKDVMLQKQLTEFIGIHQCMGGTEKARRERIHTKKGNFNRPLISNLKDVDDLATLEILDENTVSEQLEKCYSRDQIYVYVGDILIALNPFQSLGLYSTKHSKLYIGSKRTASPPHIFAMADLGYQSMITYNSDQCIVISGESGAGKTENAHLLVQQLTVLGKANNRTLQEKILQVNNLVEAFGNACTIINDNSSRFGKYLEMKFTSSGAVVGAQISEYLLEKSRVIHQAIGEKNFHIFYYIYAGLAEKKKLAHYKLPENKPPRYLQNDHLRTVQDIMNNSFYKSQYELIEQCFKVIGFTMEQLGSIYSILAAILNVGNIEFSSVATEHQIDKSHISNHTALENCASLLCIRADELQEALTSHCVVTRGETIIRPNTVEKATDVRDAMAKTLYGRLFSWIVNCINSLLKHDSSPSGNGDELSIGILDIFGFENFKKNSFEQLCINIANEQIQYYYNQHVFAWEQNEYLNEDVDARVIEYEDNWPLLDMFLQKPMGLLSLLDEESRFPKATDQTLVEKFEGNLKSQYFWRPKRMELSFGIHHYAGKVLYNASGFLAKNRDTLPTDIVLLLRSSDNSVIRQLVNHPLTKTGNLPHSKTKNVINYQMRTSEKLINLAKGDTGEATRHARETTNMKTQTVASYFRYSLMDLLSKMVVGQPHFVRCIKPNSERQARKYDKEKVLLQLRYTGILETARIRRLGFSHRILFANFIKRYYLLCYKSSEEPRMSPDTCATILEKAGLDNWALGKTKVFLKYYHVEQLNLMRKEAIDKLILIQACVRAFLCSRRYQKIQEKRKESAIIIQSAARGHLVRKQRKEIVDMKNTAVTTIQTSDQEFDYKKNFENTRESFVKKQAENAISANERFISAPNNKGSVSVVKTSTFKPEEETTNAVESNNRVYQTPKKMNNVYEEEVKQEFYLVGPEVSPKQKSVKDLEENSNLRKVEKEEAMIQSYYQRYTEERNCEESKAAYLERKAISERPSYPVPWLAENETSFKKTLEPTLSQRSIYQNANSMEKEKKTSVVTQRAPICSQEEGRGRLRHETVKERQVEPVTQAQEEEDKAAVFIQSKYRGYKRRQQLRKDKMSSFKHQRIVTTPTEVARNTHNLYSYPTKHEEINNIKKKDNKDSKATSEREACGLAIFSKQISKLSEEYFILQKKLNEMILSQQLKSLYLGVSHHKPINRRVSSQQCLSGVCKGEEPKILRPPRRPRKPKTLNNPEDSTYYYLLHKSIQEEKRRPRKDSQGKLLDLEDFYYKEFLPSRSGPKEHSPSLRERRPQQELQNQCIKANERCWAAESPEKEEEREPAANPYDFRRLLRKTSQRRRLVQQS
T4 sequence (Q13164 whole entry): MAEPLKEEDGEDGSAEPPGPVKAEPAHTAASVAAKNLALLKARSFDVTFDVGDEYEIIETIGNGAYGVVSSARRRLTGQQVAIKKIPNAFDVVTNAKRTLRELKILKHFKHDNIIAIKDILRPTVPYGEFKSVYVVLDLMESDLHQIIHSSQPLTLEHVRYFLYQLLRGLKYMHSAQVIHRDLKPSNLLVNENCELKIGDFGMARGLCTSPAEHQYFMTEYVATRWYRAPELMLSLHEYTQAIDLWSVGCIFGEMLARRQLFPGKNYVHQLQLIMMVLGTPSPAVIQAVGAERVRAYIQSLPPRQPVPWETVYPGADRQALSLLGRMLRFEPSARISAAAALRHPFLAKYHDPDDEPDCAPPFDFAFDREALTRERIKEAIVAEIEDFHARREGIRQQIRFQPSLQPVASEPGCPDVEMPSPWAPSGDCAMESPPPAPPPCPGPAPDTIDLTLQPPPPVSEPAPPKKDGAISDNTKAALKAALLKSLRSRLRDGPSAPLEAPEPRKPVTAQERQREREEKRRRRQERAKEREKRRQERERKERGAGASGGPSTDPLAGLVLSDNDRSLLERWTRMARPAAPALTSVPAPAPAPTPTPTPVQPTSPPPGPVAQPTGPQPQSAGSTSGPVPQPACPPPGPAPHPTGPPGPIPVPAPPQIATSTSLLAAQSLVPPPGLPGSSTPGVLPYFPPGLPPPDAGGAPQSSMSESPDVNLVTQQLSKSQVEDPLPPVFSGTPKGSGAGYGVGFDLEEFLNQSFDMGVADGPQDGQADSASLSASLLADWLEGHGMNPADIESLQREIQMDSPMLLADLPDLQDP

As to `COc1ccc(-c2cnccc2-c2cnc(NC(=O)C(C)C)s2)c(C(F)(F)F)c1` [CRT0105446, N-{5-[3-(4-Methoxy-2-trifluoromethyl-phenyl)-pyridin-4-yl]-hiazol-2-yl}-isobutyramide], the remaining binding at 10 µM in [1] is 58%; in test [2] it was 100%; in test [3], 100%; in test [4], 100%; in [5], 95%; in test [6], 67%. The remaining binding at 10 µM in [7] was found to be 82%; in [8], 93%; in test [9], 100%; in test [10], 86%; in test [11] it was 100%; in [12], 80%. Moreover, the remaining binding at 10 µM stood at 94% in test [13]; 100% in test [14]; 93% in test [15]; 100% in test [16]; 100% in test [17]; 100% in test [18]. For the same compound, the remaining binding at 10 µM in [19] worked out at 55%; in test [20], 87%; in [21] it was 79%; in test [22], 74%; in test [23], 99%.

On to `Cc1ccc(-c2cnccc2-c2cnc(Nc3ccc(O)cc3)s2)c(Cl)c1` [CRT0105950, 4-{5-[3-(2-Chloro-4-methyl-phenyl)-pyridin-4-yl]-thiazol-2-ylamino}-phenol], for which the remaining binding at 10 µM in [1] worked out at 18%; in test [2], 38%; in test [3], 20%; in test [4], 97%; in test [5], 97%; in [6] it was 43%. Moreover, the remaining binding at 10 µM stood at 72% in test [7]; 88% in test [8]; 65% in test [9]; 93% in [10]; 55% in [11]; 21% in test [12]. In addition, the remaining binding at 10 µM in test [13] was 80%; in [14], 94%; in [15] it was 17%; in test [16] it was 28%; in test [17], 74%; in test [18] it was 96%. Further, the remaining binding at 10 µM in [19] came out at 3.2%; in test [20], 43%; in [21], 63%; in [22], 26%; in [23], 6.4%.
